Holding throughout (assay type): cell-based, human
Experiment [1] relates to A172 (glioblastoma). Put plainly: Study 2: cell viability (CellTiter-Glo) in DMEM without sodium pyruvate. Particulars: increase in BOHB concentration (0, 4, 12 mM), no pyruvate, 3 d. As to the method: (§1) Cell lines established from human colon carcinoma (HCT15, NCI-H508 and COLO205), renal cell carcinoma (769-P, 786-O and RCC4) and glioblastoma (LN-18, A-172 and U-118 MG) were selected for the analysis. All cell lines were obtained from American Type Culture Collection (ATCC, LGC standards, UK) except for RCC4 and HCT15 that was purchased from Sigma-Aldrich (Merck, Germany). In addition, primary human renal cell carcinoma (RCC) cells isolated from patient nephrectomies were included in the study. The culture conditions were as recommended by American Type Culture Collection (ATCC) were followed, that is to grow cells in DMEM medium with the addition of 1 mM sodium pyruvate, which was also added to the RPMI-1640 medium in order to keep the conditions more similar 769-P, RCC4, LN-18, A-172, U-118 MG and the primary RCC cells were cultured in DMEM high glucose medium, while 786-O HCT15, NCI-H508 and COLO205 were cultured in RPMI-1640 medium according to the recommendations from ATCC. […]
(§2) CellTiter-Glo Luminescent cell viability assay (Promega) was used as a readout of viability.
(§3) For each cell line, optimal number of cells as determined above were seeded into 96-well plates on day 0. […] After 3d incubation in test condition medium, with daily medium changes, cell viability was determined using the CellTiter-Glo viability test. […]
Background: In ATP-based viability assays light output follows the ATP content of the culture.

Experiment [2] deals with RCC4 (renal cell carcinoma). The experiment is described as above. Conditions: increase in BOHB concentration (0, 4, 12 mM), no pyruvate, 3 d. As for the experimental part: as §1, §2, §3
The test system of experiment [3] is RCC4 renal carcinoma. Briefly: Example 2: growth in Medium A-C with or without ketones (CellTiter-Glo). Particulars: nutrient restricted Medium C, FIG. 11. As for the experimental part:
To study the effect of a nutrient restricted ketogenic environment on cancer cell growth in vitro, three different cell culture media were formulated. Medium A was full RPMI1640 medium that the cell lines routinely are cultured in. Medium B was used as an approximation of the conditions found in normal human serum. The levels of glucose, glutamine, serine, glycine and arginine were adjusted to match normal physiological levels found in human serum. These nutrients were selected based on their reported use as energy source and effects on cancer cell metabolic state. Medium C was used to emulate the ketogenic nutrient restricted Cancer Dialysis condition. Here, the levels of the selected nutrients were reduced to half of the physiological levels in Medium B, and the ketone body BOHB was added. […]
All cell lines were purchased from ATCC (ATCC, LGC standards) except for RCC4 that was from Sigma-Aldrich (Merck). […] Optimal seeding density was determined for each cell line in 96-well plates cultured for 3 days in standard cell culture medium. […]
In Medium B, to mimic physiological conditions, the levels of glutamine, serine, glycine, arginine and glucose were set to the median of measured levels in human serum, based on data from the Mayo Clinic Laboratories (https://www.mayocliniclabs.com/test-catalog/Clinical+and+Interpretive/9265). […]

Experiment [4] deals with glioma cell line A172. Briefly: Example 2: culture in Medium A-C with BOHB and/or Acac (CellTiter-Glo). Conditions: for growth: normoxic, combined experiment 2-6, 16 mM BOHB or 8 mM Acac added separately, FIG. 9. As for the experimental part:
(§4) The ketone bodies acetoacetate (Acac), BOHB and acetone are produced by the liver during fasting or starvation. BOHB is the major ketone body in mammals, while Acac constitutes around 20%.
(§5) Cells were maintained in RPMI-1640 medium (31870-025 GIBCO) with the addition of 10% serum, 200 mM L-glutamine and 1% penicillin-streptomycin (PEST) in humidified chambers at 37° C. and 5% CO2. For hypoxic conditions (5% O2), cells were maintained in a Galaxy 14 S CO2 incubator (Eppendorf) where N2 was used to adjust the O2 level to 5%.
(§6) Medium B and C were prepared from RPMI1640 modified medium powder without L-glutamine, glucose and amino acids (R9010-01, US Biological Life Sciences). For 1L medium, 7.4 g powder was dissolved in 900 ml sterile water without heating and 2 g sodium bicarbonate was added. Amino acids listed in Table 5 were added to the same concentration as in full RPMI1640 medium (Table 5). After all additions, the medium was sterilized by filtering through 0.22 um membranes and divided into two bottles.
(§7) To model Cancer Dialysis conditions in Medium C, the levels of these nutrients were reduced to 50% of the physiological levels. As for Medium A, 1% PEST and 10% dialyzed serum were added to Medium B and C. Sodium pyruvate, that is a common addition in cell culture medium, was not present in any of the used media.
(§8) Stock solutions of DL-β-Hydroxybutyric acid sodium salt (H6501, Sigma Aldrich) and Lithium Acetoacetate (A8509, Sigma Aldrich) were prepared in water, sterile filtered, aliquoted and stored at −20° C. Lithium Chloride (L7026, Sigma Aldrich) was used as a control for the addition of Lithium in the Li-Acac.
(§9) CellTiter-Glo Luminescent cell viability assay (Promega) was used as a readout of cell numbers according to the manufacturers' instructions. In experiments shown in FIG. 7-8, double plates were seeded and treated. One set of plates was used for collection of medium for lactate measurement (see below) and the CellTiterGlo-assay. The other set of plates was frozen at −80° C. at the end of the experiment. The frozen plates were intended for the CyQuant cell proliferation assay (Thermo Fisher) that measures the amount of DNA per well. Analysis of the amounts of cells by both CellTiterGlo and CyQuant assays would ensure that effects of the culture conditions on viability or growth rate would not be concealed by simultaneous changes in ATP-levels per cell.
(§10) Next, it was decided to also include Acac in the study and analyze the viability of cells cultured in the presence of BOHB and Acac alone or in combination in Medium A-C. The experiment was performed at 21% and 5% O2. The experiments were made with glioma cell lines A172 and U118MG.
(§11) Being a chiral molecule, BOHB exists as two enantiomers, D-and L-BOHB. D-BOHB is normally produced and metabolized in humans. The BOHB-salt used in this study contains a mixture of 50:50 of D-and L-BOHB. In order to ensure a high presence of the active D-form, the total concentration of BOHB added was increased to 16 mM, giving a level of 8 mM D-BOHB. To keep the total concentration of active ketones constant, 8 mM Acac was used, and for the combination of both ketones, the levels were adjusted to 4 mM Acac and 8 mM BOHB (containing 4 mM D-BOHB).
(§12) The Acac available for in vitro use is in the form of a lithium salt. Since lithium itself can affect the viability of cancer cells [Cohen-Harazi et al., Anticancer Res 2020; 40:3831-3837], 8 mM LiCl was used as a control for the 8 mM Acac data point and 4 mM LiCl was used as a control for the 4 mM Acac/8 mM BOHB data.

Experiment [5] has as its system glioma cell line U118MG. The description is as above. As for the experimental part:
as §4, §5, §6, §7, §8, §9, §10, §11, §12

Setting [6] is: Medium A, normoxia and hypoxia, 16 mM BOHB alone.
The mark [7] stands for this setting: Medium C, 21 and 5% O2, 16 mM BOHB.
[8] abbreviates: Medium A, normoxia and hypoxia, 8 mM Acac compared to 8 mM LiCl control.
Where [9] appears, read: Medium B, 21% O2, 8 mM Acac compared to 8 mM LiCl control.
The mark [10] stands for this setting: Medium C, 8 mM Acac alone compared to 8 mM LiCl control.

SMILES strings stand for the structures.

We go through two molecules from patent US20250025615A1, “NEW DIALYSIS FLUID” (GAMBRO LUNDIA AB, priority 2021, published 2025).

Turning to `CC(O)CC(=O)[O-].[Na+]` (racemic) [BOHB, DL-β-Hydroxybutyric acid sodium salt], the “proliferation of cells (cell viability)” value in experiment [1] and in experiment [2] was “suppresses the proliferation of cells” each time. For the same molecule, the “increased sensitivity to high levels of ketones” value in experiment [3] was “not found”. The growth inhibitory effect entry in experiment [4] (setting [6]) and in experiment [5] (setting [6]) was “no growth inhibitory effect” throughout. Also, the “number of cells, % of the amount in Medium B without BOHB” value in experiment [4] (Medium B, hypoxia, 16 mM BOHB) is recorded as “approximately 70%”. Besides, the “number of cells, % compared to C-medium without BOHB” value in experiment [4] (setting [7]) and in experiment [5] (setting [7]) was “around 30%” each time. The growth result in experiment [4] (Medium C) is “trend of reduced growth”.

Consider `CC(=O)CC(=O)[O-].[Li+]` [Acac, Lithium Acetoacetate], for which the number of cells entry in experiment [4] (setting [8]) is listed as “did not reduce the number of cells further”; in experiment [4] (setting [9]) it was “reduced the number of cells significantly”; in experiment [5] (setting [8]), “did not reduce the number of cells further”; in experiment [5] (setting [9]), “reduced the number of cells significantly”. The amounts of cells result in experiment [4] (setting [10]) and in experiment [5] (setting [10]) was “did not significantly reduce the amounts of cells” throughout. For the same molecule, the growth result in experiment [4] (Medium C) was “trend of reduced growth”.
